From publication PMC10890502, “Prevention of Protease-Induced Degradation of Desmoplakin via Small Molecule Binding” (Journal of Personalized Medicine, 2024)
Where a chain is given by its changes, count along the chain named. Counter-ions that a name gives are not always drawn. Like-named read-outs stand apart in the source and are kept apart here.

Legend:
Experiment in all cases: biochemical
sDSP S507F = target: T1, sDSP S507F (Homo sapiens, UniProt P15924, S507F); set-up: FITC-sDSP degradation by calpain (1:20), fluorescence polarization after 60 min, per cent of calpain-only control; conditions: degradation rate of DSP S507F by calpain; read-out: % of control remaining
T1 construct: gene DSP; N-terminal fragment, residues 178-627
T1 sequence (P15924 whole entry S507F, the tested form may be a part): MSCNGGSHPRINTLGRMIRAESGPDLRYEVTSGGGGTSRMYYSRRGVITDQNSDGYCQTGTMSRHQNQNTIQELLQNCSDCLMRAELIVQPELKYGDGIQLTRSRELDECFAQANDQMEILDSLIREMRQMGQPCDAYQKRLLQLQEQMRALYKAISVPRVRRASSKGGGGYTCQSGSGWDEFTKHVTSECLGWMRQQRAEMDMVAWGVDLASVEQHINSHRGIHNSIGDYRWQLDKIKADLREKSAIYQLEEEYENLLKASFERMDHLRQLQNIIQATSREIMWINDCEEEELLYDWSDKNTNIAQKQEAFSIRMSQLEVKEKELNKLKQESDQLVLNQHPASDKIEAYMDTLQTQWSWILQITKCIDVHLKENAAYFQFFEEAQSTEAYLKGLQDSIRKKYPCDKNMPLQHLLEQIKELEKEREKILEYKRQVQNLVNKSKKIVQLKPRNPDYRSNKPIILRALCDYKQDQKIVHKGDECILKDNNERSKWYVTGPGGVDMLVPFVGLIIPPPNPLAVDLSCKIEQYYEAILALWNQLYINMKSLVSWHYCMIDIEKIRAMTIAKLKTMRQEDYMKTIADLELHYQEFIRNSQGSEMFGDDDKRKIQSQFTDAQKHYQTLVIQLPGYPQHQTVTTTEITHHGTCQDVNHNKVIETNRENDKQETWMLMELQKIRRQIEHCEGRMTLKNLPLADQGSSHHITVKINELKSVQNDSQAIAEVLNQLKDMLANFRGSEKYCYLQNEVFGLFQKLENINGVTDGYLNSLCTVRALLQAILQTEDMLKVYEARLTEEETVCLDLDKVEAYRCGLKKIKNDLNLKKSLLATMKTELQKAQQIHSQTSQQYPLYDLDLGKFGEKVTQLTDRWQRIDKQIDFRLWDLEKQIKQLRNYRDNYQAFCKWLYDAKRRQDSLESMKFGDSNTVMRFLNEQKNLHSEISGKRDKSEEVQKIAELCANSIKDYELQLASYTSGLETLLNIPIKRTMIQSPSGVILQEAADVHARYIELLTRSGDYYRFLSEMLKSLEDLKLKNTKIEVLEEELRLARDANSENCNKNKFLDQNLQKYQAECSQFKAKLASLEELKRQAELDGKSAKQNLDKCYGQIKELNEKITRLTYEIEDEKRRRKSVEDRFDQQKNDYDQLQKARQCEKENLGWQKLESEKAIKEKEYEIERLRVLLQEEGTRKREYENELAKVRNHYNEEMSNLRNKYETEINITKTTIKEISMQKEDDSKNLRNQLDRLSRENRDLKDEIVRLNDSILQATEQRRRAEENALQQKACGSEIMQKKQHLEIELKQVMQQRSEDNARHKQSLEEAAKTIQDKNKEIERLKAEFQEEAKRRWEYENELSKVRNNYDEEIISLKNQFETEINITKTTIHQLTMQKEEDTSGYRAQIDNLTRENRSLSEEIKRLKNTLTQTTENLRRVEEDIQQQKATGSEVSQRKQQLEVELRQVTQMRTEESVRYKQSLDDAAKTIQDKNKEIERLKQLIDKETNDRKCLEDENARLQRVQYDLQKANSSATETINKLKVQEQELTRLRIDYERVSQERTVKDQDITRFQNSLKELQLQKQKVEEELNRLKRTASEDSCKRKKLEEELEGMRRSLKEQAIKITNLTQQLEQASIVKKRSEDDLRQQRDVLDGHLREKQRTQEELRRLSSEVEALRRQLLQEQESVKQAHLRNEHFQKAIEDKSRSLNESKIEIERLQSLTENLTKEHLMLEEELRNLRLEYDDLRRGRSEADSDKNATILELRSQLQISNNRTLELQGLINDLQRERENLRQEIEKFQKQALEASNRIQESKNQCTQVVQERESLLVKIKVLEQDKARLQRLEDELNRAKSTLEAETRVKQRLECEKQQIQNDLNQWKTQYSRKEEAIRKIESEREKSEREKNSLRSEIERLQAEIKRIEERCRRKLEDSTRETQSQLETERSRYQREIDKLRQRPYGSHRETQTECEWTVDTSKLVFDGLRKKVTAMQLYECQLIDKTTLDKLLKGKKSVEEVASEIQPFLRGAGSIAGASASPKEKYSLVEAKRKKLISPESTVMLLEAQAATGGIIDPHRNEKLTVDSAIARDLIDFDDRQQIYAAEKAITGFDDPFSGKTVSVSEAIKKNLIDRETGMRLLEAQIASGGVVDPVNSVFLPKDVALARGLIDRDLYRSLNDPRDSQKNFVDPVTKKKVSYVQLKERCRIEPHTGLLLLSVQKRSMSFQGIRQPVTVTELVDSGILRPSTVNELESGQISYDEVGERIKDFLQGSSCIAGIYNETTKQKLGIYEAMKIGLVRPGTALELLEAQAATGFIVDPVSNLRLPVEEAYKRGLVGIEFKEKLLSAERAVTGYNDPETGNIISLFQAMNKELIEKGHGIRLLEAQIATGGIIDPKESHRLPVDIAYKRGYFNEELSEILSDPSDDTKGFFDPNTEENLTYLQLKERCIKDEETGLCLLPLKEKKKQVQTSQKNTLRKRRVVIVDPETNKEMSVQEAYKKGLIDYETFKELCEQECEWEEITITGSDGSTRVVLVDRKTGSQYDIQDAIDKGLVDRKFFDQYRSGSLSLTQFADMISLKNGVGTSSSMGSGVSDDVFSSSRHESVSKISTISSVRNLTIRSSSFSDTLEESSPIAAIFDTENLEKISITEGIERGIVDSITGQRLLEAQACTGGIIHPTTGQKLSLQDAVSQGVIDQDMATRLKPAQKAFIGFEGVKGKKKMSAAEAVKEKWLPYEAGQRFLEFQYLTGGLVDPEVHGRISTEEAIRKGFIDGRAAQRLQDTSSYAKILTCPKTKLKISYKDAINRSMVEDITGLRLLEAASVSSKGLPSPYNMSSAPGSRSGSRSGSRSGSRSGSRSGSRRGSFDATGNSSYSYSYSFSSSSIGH
Experimental: (§1) Fluorescence Polarization (FP) assays were conducted in […] format using a BioTek Synergy H4 plate reader with polarization capacity (Agilent; Savage, MD, USA). All samples were run at 25 °C using PBS pH 7.4, 1 mM DTT, 10 mM CaCl2, 5% DMSO, and […] FITC- DSP178–627, with 500 μM of each drug. Trypsin, chymotrypsin, or calpain at either 1:50, 1:50, or 1:20 concentration was added directly before data collection with an average void time of 2 min. Control experiments in each plate were conducted in triplicate and consisted of DSP178–627 + DMSO + protease as a positive control and DSP178–627 + DMSO + [compound left out] + protease as a negative control. Only plates that had functional positive and negative controls were used in data analysis. Samples were excited at 485 nm, and polarization was monitored at 528 nm. Data were collected at 5 min increments for 1–3 h. […] Therefore, we next tested whether these 62 compounds also prevent wildtype and variant DSP degradation in the presence of calpain. […] (A) Normalized fluorescent polarization of WT and sDSP variants in the presence of a 1:20 ratio of calpain plus 500 μM drug, as compared to calpain alone (black) (B) Identity and chemical structure of the six best-performing compounds.

sDSP (DSP178–627) [1] = target: T2, sDSP (DSP178–627) (Homo sapiens, UniProt P15924, R451G); set-up: FITC-sDSP degradation by calpain (1:20), fluorescence polarization after 60 min, per cent of calpain-only control; conditions: degradation rate of DSP R451G by calpain; read-out: % of control remaining
T2 construct: gene DSP; N-terminal spectrin repeat/SH3 fragment, residues 178-627; pGEX-1 GST fusion cut with thrombin, E. coli BL21(DE3); fluorescein-5-maleimide label on exposed cysteines (C405, C524)
T2 sequence (P15924 178-627 R451G): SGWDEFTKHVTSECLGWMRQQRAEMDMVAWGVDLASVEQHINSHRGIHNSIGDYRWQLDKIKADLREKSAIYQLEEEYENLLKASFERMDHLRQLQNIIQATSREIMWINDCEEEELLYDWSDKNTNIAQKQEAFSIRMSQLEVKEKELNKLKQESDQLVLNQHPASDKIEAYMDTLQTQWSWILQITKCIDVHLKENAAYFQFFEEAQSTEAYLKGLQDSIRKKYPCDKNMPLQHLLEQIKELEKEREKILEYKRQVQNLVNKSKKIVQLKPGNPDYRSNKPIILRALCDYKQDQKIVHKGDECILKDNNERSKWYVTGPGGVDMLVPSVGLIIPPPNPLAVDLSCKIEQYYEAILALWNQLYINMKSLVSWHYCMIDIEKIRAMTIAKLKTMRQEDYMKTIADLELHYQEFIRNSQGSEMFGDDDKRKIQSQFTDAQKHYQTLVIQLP
Experimental: as §1

sDSP (DSP178–627) [2] = target: T3, sDSP (DSP178–627) (Homo sapiens, UniProt P15924, S442F); set-up: FITC-sDSP degradation by calpain (1:20), fluorescence polarization after 60 min, per cent of calpain-only control; conditions: degradation rate of DSP S442F by calpain; read-out: % of control remaining
T3 construct: gene DSP; N-terminal spectrin repeat/SH3 fragment, residues 178-627; pGEX-1 GST fusion cut with thrombin, E. coli BL21(DE3); fluorescein-5-maleimide label on exposed cysteines (C405, C524)
T3 sequence (P15924 178-627 S442F): T2 sequence (P15924 178-627 R451G) with S265F, G274R
Experimental: as §1

sDSP (DSP178–627) [3] = target: T4, sDSP (DSP178–627) (Homo sapiens, UniProt P15924); set-up: FITC-sDSP degradation by calpain (1:20), fluorescence polarization after 60 min, per cent of calpain-only control; conditions: degradation rate of DSP WT by calpain; read-out: % of control remaining
T4 construct: gene DSP; N-terminal spectrin repeat/SH3 fragment, residues 178-627; pGEX-1 GST fusion cut with thrombin, E. coli BL21(DE3); fluorescein-5-maleimide label on exposed cysteines (C405, C524)
T4 sequence (P15924 178-627): T2 sequence (P15924 178-627 R451G) with G274R
Experimental: as §1

sDSP (DSP178–627) [4] = target: T3, sDSP (DSP178–627); set-up: FITC-sDSP S442F degradation by trypsin (1:50), fluorescence polarization after 60 min, per cent of protease-only control; conditions: degradation rate of DSP S442F by trypsin; read-out: % of control remaining
Experimental: Fluorescence Polarization (FP) assays were conducted in […] format using a BioTek Synergy H4 plate reader with polarization capacity (Agilent; Savage, MD, USA). All samples were run at 25 °C using PBS pH 7.4, 1 mM DTT, 10 mM CaCl2, 5% DMSO, and […] FITC- DSP178–627, with 500 μM of each drug. Trypsin, chymotrypsin, or calpain at either 1:50, 1:50, or 1:20 concentration was added directly before data collection with an average void time of 2 min. Control experiments in each plate were conducted in triplicate and consisted of DSP178–627 + DMSO + protease as a positive control and DSP178–627 + DMSO + [compound left out] + protease as a negative control. Only plates that had functional positive and negative controls were used in data analysis. Samples were excited at 485 nm, and polarization was monitored at 528 nm. Data were collected at 5 min increments for 1–3 h. A mutation that partially occludes the DSP calpain cleavage site rescues DSP protein levels. We next assessed whether protease-dependent cleavage can also be blocked by small molecules. We screened 2496 FDA-approved drugs for their ability to prevent trypsin-dependent cleavage of sDSP S442F in our FP assay (Figure 3A). […] No change in fluorescence polarization after an hour is indicative of 0% protein degradation rate, as occurs in the [compound left out] positive control. […] (A) sDSP S442F degradation in the presence of trypsin plus 2496 compounds from the Cayman chemical “FDA library”. A degradation rate of 100% indicates the same desmoplakin degradation rate with and without the addition of 500 μM drug while a 0% rate indicates no degradation, as judged by fluorescent polarization values after 1 h. A trypsin-only control and a trypsin + [compound left out] control is indicated. Protection (red lines) was arbitrarily set between 33% and −10%. […] (B) Example of how the data in A was generated.

Compound | remaining activity at 500 µM (sDSP S507F) [%] | remaining activity at 500 µM (sDSP (DSP178–627) [1]) [%] | remaining activity at 500 µM (sDSP (DSP178–627) [2]) [%] | remaining activity at 500 µM (sDSP (DSP178–627) [3]) [%] | remaining activity at 500 µM (sDSP (DSP178–627) [4]) [%]
CCCCc1oc2ccc(NS(C)(=O)=O)cc2c1C(=O)c1ccc(OCCCN(CCCC)CCCC)cc1 [Dronedarone HCl] | 25 | 20 | 0 | 143 | 23
Cc1ccc(NC(=O)c2ccc(CN3CCN(C)CC3)cc2)cc1Nc1nccc(-c2cccnc2)n1 [Imatinib] | 108 | 4 | 62 | -6 | -3
Cn1cc(-c2ccc(F)c(C(F)(F)F)c2)nc1C1CCN(c2ncnc3[nH]ncc23)CC1 [LY2584702] | 84 | 15 | -40 | 67 | 18
Fc1ccc([C@@H]2CCNC[C@H]2COc2ccc3c(c2)OCO3)cc1 [Paraxetine] | 133 | 26 | -3 | -8 | 20
CCCCc1ncc(/C=C(\Cc2cccs2)C(=O)O)n1Cc1ccc(C(=O)O)cc1 [eprosarten mesylate] | 31 | 33 | 26 | 30 | 32
CN1CCN(C2=Nc3ccccc3Oc3ccc(Cl)cc32)CC1 [Loxipine Succinate] | 107 | -41 | 101 | -8 | 1
CC/C=C\C/C=C\C/C=C\C/C=C\C/C=C\C/C=C\CCC(=O)O [Docosahexaenoic Acid] | 104 | 118 | -19 | -12 | 32
NC1(Cc2ccc(Cl)cc2)CCN(c2ncnc3[nH]ccc23)CC1 [CCT128930] | 20 | 32 | 86 | 54 | 20
